# Test results: patent US8748410B2, “Methods of treating aneurysm” (Wisconsin Alumni Research Foundation, priority 2010, dated 2014)
# Legend:
# [1] = system: calcium chloride induced AAA (CaCl2 AAA); assay: calcium chloride induced AAA in mouse, aneurysm formation; format: in vivo; details: mice, 1.25 mg/kg i.v., after 7 days
# Text: FIG. 2 illustrates the effect of OLCs inhibition on mouse AAA. Representative pictures of CaCl2 AAA with intravenous (“i.v.”) saline or bisphosphonate injection. Fold increase of the maximum size 7 days after the treatment was shown. n=3, P<0.05. Initially, the inventors identified robust calcification in human AAA samples. The inventors have also identified the existence of OLCs in the medial layer of aneurismal aorta, which were barely detected in age matched aortic tissues from autopsy and stenotic disease both by tartrate-resistant acid phosphatase (“TRAP”) staining, a conventional staining for osteoclast, and immunohistochemistry for osteoclast marker, TRAP (see FIG. 1). The inventors also have identified calcification and OLCs in experimental calcium chloride induced AAA (CaCl2 AAA) in mouse. […] (see FIG. 2) The dose of pamidronate was equivalent to FDA approved dose of pamidronate for osteolytic bone lesions (90 mg/body).
# [2] = system: pre-existing (induced) AAAs; assay: pre-existing (induced) AAAs in mice, delayed treatment; format: in vivo; details: weekly injection started 7 days after aneurysm induction, over 5 weeks vs. saline control
# Experimental: In addition, the inventors have extended their studies to cover the other major subclass of bisphosphonates (i.e., non-nitrogenous bisphosphonates) by studying the effect of etidronate (7.5 mg/kg i.v.) on aneurysm formation over 7 days (see FIG. 3B). The dose of etidronate was equivalent to FDA approved dose for Paget's disease (5-10 mg/kg). […] The bisphosphonate treatment corresponding to the data in FIG. 3A was started 1 week post surgery. The bisphosphonate treatments resulting in the data shown in FIGS. 4 (pamidronate) and 5 (etidronate) differed from the previous treatment in that they included weekly bisphosphonate administration immediately after surgery through 6 weeks post surgery.
smiles,measurement,setting,value
NCCC(O)(P(=O)(O)O)P(=O)(O)O [pamidronate],inhibition of aneurysm formation,[1],apparently complete inhibition of aneurysm formation
same,further growth of the aneurysm,[2],immediately halted further growth of the aneurysm
